Test results taken from patent publication US20150322083A1, “(THIENO[2,3-b][1,5]BENZOXAZEPIN-4-YL)PIPERAZIN-1-YL COMPOUNDS AS SELECTIVE 5-HT2A INVERSE AGONISTS” (Eli Lilly and Company, priority 2014, published 2015).

Key:
[1] = target: hERG channel (Homo sapiens, UniProt Q12809); test: hERG channel assay (selectivity data)
Source text: (§1) Further, the compounds of the invention may be tested in binding assays and functional activity assays by well known methods for other physiologically important receptors such as, but not limited to, the hERG channel, other serotonin receptors (specifically 5-HT1B receptors, lack of agonist activity at 5-HT2B receptors, 5-HT2C, 5-HT5, 5-HT6, and 5-HT7 receptors), dopaminergic receptors (specifically D1, D2, and D3), H1 receptors, GABAA receptors, adrenergic receptors and monoamine transporters.

[2] = target: 5-HT7 receptors (Homo sapiens, UniProt P34969); test: 5-HT7 binding
Protocol: (§2) Curves are evaluated using a 4-parameter logistic nonlinear equation to obtain the concentration of competitor causing 50% inhibition of radioligand binding (IC50). Equilibrium dissociation constants (Ki) are calculated according to the equation Ki=IC50/(1+L/Kd), where L equals the concentration of radioligand used in the experiment and Kd equals the equilibrium dissociation constant of the radioligand for the receptor, determined from standard saturation analysis or homologous competition experiments. Reported values for Ki, where n values are indicated, are shown as geometric mean±the standard error of the mean (SEM), with the number of replicate determinations indicated by n. Geometric means are calculated by the equation GeoMean=10̂(Average(log Ki 1+log Ki 2+ . . . log Ki n)/[…]).
as §1

[3] = target: Adrenergic alpha2C (Homo sapiens, UniProt P18825); test: Adrenergic alpha2C binding
Protocol: as §2, §1

[4] = test system: DOI induced headshake response; test: Inhibition of DOI induced headshake activity; assay type: in vivo, male C57BL/6J mice; details: mice, PO, 60 min. pre-treatment, DOI 3 mg/kg subcutaneously
Protocol: (see for example Bartoszyk G D, van Amsterdam C, Böttcher H, Seyfried C A. EMD 281014, a new selective serotonin 5-HT2A receptor antagonist. Eur J Pharmacol. 2003 473: 229-230.) This assay has also be used as an indicator of anti-psychotic therapeutic potential. Briefly, male C57BL/6J mice (20-25 g, Charles River) are housed in standard housing conditions (32 mice in a large IVC cage, 07.00 to 19.00 light phase, constant temperature (19-23° C.) and humidity (50%+/−10), ad lib food and water). Mice received either vehicle (0.25% Methyl cellulose), DOI (3 mg/kg in saline) or test compound at doses up to 10 mg/kg PO plus DOI (3 mg/kg in saline). Test compounds are individually evaluated at 4 doses with n=4 for each dose, together with vehicle and DOI+vehicle (n=8). After a test compound pre-treatment time of 60 min. the mice receive either vehicle (saline) or 3 mg/kg DOI dosed subcutaneously, and are then placed into clear perspex observation chambers. […] The data is analyzed using an ANOVA and post-hoc Dunnet's Test. The compounds of Example 1 and Example 2 are tested essentially as described and are found to inhibit the DOI induced headshake response with an approximate EC50 of 0.5 mg/kg for both compounds.

Sequence of hERG channel (Q12809 whole entry): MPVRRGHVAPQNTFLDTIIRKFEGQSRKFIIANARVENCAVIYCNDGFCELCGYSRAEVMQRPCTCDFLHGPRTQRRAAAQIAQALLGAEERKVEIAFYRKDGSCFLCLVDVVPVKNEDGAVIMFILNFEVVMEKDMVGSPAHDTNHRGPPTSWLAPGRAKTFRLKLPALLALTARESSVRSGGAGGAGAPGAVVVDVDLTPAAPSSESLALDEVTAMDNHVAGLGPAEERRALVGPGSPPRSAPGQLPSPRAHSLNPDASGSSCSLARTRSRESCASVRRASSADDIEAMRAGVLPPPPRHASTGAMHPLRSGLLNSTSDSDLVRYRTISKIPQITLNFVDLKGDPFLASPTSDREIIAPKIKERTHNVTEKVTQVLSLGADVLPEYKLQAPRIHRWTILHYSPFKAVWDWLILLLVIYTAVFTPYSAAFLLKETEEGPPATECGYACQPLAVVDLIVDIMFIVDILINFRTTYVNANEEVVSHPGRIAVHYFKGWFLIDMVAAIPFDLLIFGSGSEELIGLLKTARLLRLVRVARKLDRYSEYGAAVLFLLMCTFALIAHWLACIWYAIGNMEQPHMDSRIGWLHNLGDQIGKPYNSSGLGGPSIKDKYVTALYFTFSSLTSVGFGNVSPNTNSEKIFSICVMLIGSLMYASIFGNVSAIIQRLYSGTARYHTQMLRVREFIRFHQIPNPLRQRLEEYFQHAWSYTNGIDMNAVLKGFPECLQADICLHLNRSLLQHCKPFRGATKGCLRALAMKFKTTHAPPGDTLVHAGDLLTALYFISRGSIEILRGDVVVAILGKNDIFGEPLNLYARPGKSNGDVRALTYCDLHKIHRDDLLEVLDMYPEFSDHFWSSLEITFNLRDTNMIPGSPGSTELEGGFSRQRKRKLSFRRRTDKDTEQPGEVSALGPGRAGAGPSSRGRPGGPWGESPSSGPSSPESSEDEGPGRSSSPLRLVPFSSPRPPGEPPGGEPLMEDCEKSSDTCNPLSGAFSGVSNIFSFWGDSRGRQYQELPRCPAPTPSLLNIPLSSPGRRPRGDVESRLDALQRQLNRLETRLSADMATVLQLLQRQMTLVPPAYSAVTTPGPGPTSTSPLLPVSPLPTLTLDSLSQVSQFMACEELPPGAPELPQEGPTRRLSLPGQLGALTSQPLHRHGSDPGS
Sequence of 5-HT7 receptors (P34969 whole entry): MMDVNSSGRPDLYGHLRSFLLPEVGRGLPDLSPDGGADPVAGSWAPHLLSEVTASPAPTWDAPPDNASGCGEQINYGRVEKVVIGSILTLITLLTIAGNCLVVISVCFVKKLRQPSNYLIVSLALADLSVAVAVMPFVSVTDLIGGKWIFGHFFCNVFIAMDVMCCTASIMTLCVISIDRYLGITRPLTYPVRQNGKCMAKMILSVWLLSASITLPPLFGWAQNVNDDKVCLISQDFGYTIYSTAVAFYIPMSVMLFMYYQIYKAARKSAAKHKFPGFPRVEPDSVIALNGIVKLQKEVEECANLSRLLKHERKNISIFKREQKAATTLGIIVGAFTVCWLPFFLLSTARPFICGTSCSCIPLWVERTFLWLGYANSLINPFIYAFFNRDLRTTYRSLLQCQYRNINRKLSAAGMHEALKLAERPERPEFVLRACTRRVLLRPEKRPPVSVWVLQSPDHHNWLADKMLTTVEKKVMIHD
Sequence of Adrenergic alpha2C (P18825 whole entry): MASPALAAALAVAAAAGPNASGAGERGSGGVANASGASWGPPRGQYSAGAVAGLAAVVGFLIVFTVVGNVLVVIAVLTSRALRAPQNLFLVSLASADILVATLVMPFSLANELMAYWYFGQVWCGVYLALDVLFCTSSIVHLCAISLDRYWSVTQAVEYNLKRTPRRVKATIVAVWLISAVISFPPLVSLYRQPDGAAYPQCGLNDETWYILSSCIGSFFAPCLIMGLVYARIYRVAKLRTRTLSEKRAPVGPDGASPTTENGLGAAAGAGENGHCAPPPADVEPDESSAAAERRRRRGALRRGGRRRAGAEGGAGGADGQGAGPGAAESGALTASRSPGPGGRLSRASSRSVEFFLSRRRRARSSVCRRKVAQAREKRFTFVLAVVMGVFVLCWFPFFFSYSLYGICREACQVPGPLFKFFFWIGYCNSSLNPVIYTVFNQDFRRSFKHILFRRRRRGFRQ

In the case of `Cc1ccc2c(c1)Oc1sc(SC(C)C)cc1C(N1CCN(CC(C)(C)C(=O)O)CC1)=N2` [Example 1, 3-[4-(2-isopropylsulfanyl-8-methyl-thieno[2,3-b][1,5]benzoxazepin-4-yl)piperazin-1-yl]-2,2-dimethyl-propanoic acid], the “hERG Channel” value [1] is reported as >100 µM, the Ki [2] is reported as > 2.06 µM and the Ki [3] is reported as > 6.43 µM. For the same compound, the “approximate EC50, inhibition of DOI induced headshake response” value [4] was ~0.5 mg/kg.
